Structures can show the parent of a compound that is named as a salt.
Columns and labels:
[1] = Plasma stability of prodrugs (bioconversion to parent drug); format: in vitro ADME
Method: Approximately 1 mg/mL of stock solution of each prodrug was prepared in 100 μL of ethanol and 900 μL of acetonitrile. Next, 10 μL of stock was spiked into 1 mL of plasma and vortexed. The samples were kept sealed in an amber vial and samples were obtained to analyze for bioconversion to parent drug.
An approximated 1 mg/mL stock solution of each prodrug was prepared in 100 μL of ethanol and 900 μL of acetonitrile. Next, 10 μL of stock was spiked into 1 mL of plasma and vortexed. The samples were kept sealed in an amber vial and samples were obtained to analyze for bioconversion to parent drug.
Approximately 1 mg/mL of stock solution of each prodrug was prepared in 100 μL of ethanol and 900 μL of acetonitrile. Ten μL of stock was spiked into 1 mL of plasma and vortexed. The samples were kept sealed in an amber vial and samples were obtained to analyze for bioconversion to parent drug.

[2] = In vitro human skin permeation, flow-through diffusion cells; details: analyte: THC or intact prodrug as applied
[3] = Table 7, 2.36:1.18:1 PG:ethanol:H2O donor solution
[4] = Table 9, 2.36:1.18:1 pH = 5.5 PG:ethanol:H2O donor solution
[5] = Table 10, 2.36:1.18:1 pH = 5.5 PG:ethanol:H2O donor solution
[6] = Table 17, 90:8:2 PG:H2O:IPM donor solution
[7] = Table 18, 90:8:2 PG:H2O:IPM donor solution
[8] = Table 19, 90:8:2 PG:H2O:IPM donor solution
[9] = Table 13, gel formulation with 40% aqueous PEG 400 receiver fluid

Compound: CCCCCc1cc(OC(=O)CN(C)C=O)c2c(c1)OC(C)(C)[C@@H]1CCC(C)=C[C@@H]21 [ALL00121, Δ^9-Tetrahydrocannabinol N-formylsarcosyl ester]
- % Prodrug at time (h) ([1]; Table 11, 0.1 h): 100%
- % Prodrug at time (h) ([1]; Table 11, 1 h): 50%
- % Prodrug at time (h) ([1]; Table 11, 22 h): 10%
- % Prodrug at time (h) ([1]; Table 11, 24 h): 14%
- % Prodrug at time (h) ([1]; Table 11, 42 h): 0%
- 24 h cumulative amt [2, 3]: 18.5 ± 5.6 nmol
- 24 h skin conc [2, 3]: 72.3 ± 54.0 µmol/g
- Flux [2, 3]: 1.2 ± 0.3 nmol/cm^2/h
- Lag time [2, 3]: 8.3 ± 0.5 h
- 24 h cumulative amt ([2]; Table 8, gel formulation): 8.8 ± 0.1 nmol
- 24 h skin conc ([2]; Table 8, gel formulation): 33.2 ± 7.2 µmol/g
- Flux ([2]; Table 8, gel formulation): 0.38 ± 0.03 nmol/cm^2/h
- Lag time ([2]; Table 8, gel formulation): 1.4 ± 0.0 h

Compound: CCCCCc1cc(OC(=O)C(=O)OCCOCCOCCOCCOC)c2c(c1)OC(C)(C)[C@@H]1CCC(C)=C[C@@H]21 [ALL00122, Δ^9-Tetrahydrocannabinol 3,6,9,12-tetraoxatridecyl oxalate]
- % Prodrug at time (h) ([1]; Table 11, 0.1 h): 0%
- % Prodrug at time (h) ([1]; Table 11, 1 h): 0%
- % Prodrug at time (h) ([1]; Table 11, 22 h): 0%
- % Prodrug at time (h) ([1]; Table 11, 24 h): 0%
- % Prodrug at time (h) ([1]; Table 11, 42 h): 0%
- 24 h skin conc [2, 4]: 52.7 ± 3.2 µmol/g

Compound: CCCCCc1cc(OC(=O)CCC(=O)O)c2c(c1)OC(C)(C)[C@@H]1CCC(C)=C[C@@H]21 [ALL00123, Δ^9-Tetrahydrocannabinol hemisuccinate]
- % Prodrug at time (h) ([1]; Table 11, 0.1 h): 0%
- % Prodrug at time (h) ([1]; Table 11, 1 h): 0%
- % Prodrug at time (h) ([1]; Table 11, 22 h): 0%
- % Prodrug at time (h) ([1]; Table 11, 24 h): 0%
- % Prodrug at time (h) ([1]; Table 11, 42 h): 0%
- 24 h cumulative amt ([2]; Table 8, gel formulation): 2.3 ± 1.5 nmol
- 24 h skin conc ([2]; Table 8, gel formulation): 110.4 ± 22.2 µmol/g
- Flux ([2]; Table 8, gel formulation): 0.15 ± 0.07 nmol/cm^2/h

Compound: CCCCCc1cc(OC(=O)NCCCCN)c2c(c1)OC(C)(C)[C@@H]1CCC(C)=C[C@@H]21 [ALL00124, Δ^9-Tetrahydrocannabinol 4-aminobutyl carbamate]
- % Prodrug at time (h) ([1]; Table 11, 0.1 h): 97%
- % Prodrug at time (h) ([1]; Table 11, 1 h): 97%
- % Prodrug at time (h) ([1]; Table 11, 2 h): 97%
- % Prodrug at time (h) ([1]; Table 11, 3 h): 96%
- % Prodrug at time (h) ([1]; Table 11, 5 h): 94%
- % Prodrug at time (h) ([1]; Table 11, 24 h): 71%
- 24 h cumulative amt [2, 4]: 138.7 ± 101.2 nmol
- 24 h skin conc [2, 4]: 17.3 ± 0.4 µmol/g
- Flux [2, 4]: 9.4 ± 5.9 nmol/cm^2/h
- Lag time [2, 4]: 9.1 ± 2.0 h
- 24 h cumulative amt [2, 5]: 245.2 ± 54.1 nmol
- 24 h skin conc [2, 5]: 4.3 ± 0.3 µmol/g
- Flux [2, 5]: 16.1 ± 0.1 nmol/cm^2/h
- Lag time [2, 5]: 1.4 ± 0.0 h

Compound: CCCCCc1cc(OC(=O)OC[C@H](O)CO)c2c(c1)OC(C)(C)[C@@H]1CCC(C)=C[C@@H]21 [ALL00126, Δ^9-Tetrahydrocannabinol (R)-2,3-dihydroxypropyl carbonate]
- % Prodrug at time (h) ([1]; Table 15, 0.1 h): 100%
- % Prodrug at time (h) ([1]; Table 15, 1 h): 3%
- % Prodrug at time (h) ([1]; Table 15, 2.5 h): 1%
- % Prodrug at time (h) ([1]; Table 15, 3.5 h): 1%
- 24 h cumulative amt [2, 6]: 69.7 ± 10.7 nmol
- 24 h skin conc [2, 6]: 17.8 ± 4.8 µmol/g
- Flux [2, 6]: 5.7 ± 0.0 nmol/cm^2/h
- Lag time [2, 6]: 10.8 ± 2.1 h

Compound: CCCCCc1cc(OC(=O)C(C)(CO)CO)c2c(c1)OC(C)(C)[C@@H]1CCC(C)=C[C@@H]21 [ALL00129, Δ^9-Tetrahydrocannabinol 3-hydroxy-2-(hydroxymethyl)-2-methylpropanoate]
- % Prodrug at time (h) ([1]; Table 15, 0.1 h): 100%
- % Prodrug at time (h) ([1]; Table 15, 1 h): 100%
- % Prodrug at time (h) ([1]; Table 15, 3 h): 98%
- % Prodrug at time (h) ([1]; Table 15, 24 h): 83%
- 24 h cumulative amt [2, 7]: 74.2 ± 8.1 nmol
- 24 h skin conc [2, 7]: 19.6 ± 12.6 µmol/g
- Flux [2, 7]: 4.8 ± 0.7 nmol/cm^2/h
- Lag time [2, 7]: 7.8 ± 1.3 h

Compound: CCCCCc1cc(OC(=O)[C@@H](O)CO)c2c(c1)OC(C)(C)[C@@H]1CCC(C)=C[C@@H]21 [ALL00134, A9-Tetrahydrocannabinol (S)-2,3-dihydroxypropanoate]
- % Prodrug at time (h) ([1]; Table 15, 0.1 h): 96%
- % Prodrug at time (h) ([1]; Table 15, 0.5 h): 61%
- % Prodrug at time (h) ([1]; Table 15, 2 h): 15%
- % Prodrug at time (h) ([1]; Table 15, 5 h): 0.8%
- % Prodrug at time (h) ([1]; Table 15, 24 h): 0%
- 24 h cumulative amt [2, 8]: 128.6 ± 5.1 nmol
- 24 h skin conc [2, 8]: 24.5 ± 12.3 µmol/g
- Flux [2, 8]: 8.0 ± 0.3 nmol/cm^2/h
- Lag time [2, 8]: 7.0 ± 0.1 h

Compound: CCCCCc1cc(OC(=O)OC[C@@H](O)CO)c2c(c1)OC(C)(C)[C@@H]1CCC(C)=C[C@@H]21 [ALL00138, Δ^9-Tetrahydrocannabinol (S)-2,3-dihydroxypropyl carbonate]
- % Prodrug at time (h) ([1]; Table 15, 0.1 h): 30%
- % Prodrug at time (h) ([1]; Table 15, 0.5 h): 0%
- 24 h cumulative amt [2, 7]: 18.2 ± 1.4 nmol
- 24 h skin conc [2, 7]: 7.2 ± 4.8 µmol/g
- Flux [2, 7]: 1.0 ± 0.0 nmol/cm^2/h
- Lag time [2, 7]: 5.9 ± 1.4 h

Compound: CCCCCc1cc(OC(=O)CCN(C)C)c2c(c1)OC(C)(C)[C@@H]1CCC(C)=C[C@@H]21 [ALL00153, Δ^9-Tetrahydrocannabinol 3-(dimethylamino)propionate]
- % Prodrug at time (h) ([1]; Table 14, 0 h): 98%
- % Prodrug at time (h) ([1]; Table 14, 1 h): 72%
- % Prodrug at time (h) ([1]; Table 14, 21 h): 48%
- % Prodrug at time (h) ([1]; Table 14, 24 h): 41%
- 24 h skin conc [2, 9]: 1.6 ± 0.03 µmol/g
- 24 h skin conc ([2]; Table 20, 90:8:2 PG:H2O:IPM donor solution (saturated)): 0.6 ± 0.1 µmol/g

Compound: CCCCCc1cc(OC(=O)CO)c2c(c1)OC(C)(C)[C@@H]1CCC(C)=C[C@@H]21 [ALL00154, Δ^9-Tetrahydrocannabinol glycolate]
- % Prodrug at time (h) ([1]; Table 14, 0 h): 95%
- % Prodrug at time (h) ([1]; Table 14, 1 h): 0%
- % Prodrug at time (h) ([1]; Table 14, 21 h): 0%
- % Prodrug at time (h) ([1]; Table 14, 24 h): 0%
- 24 h cumulative amt [2, 9]: 39.2 nmol
- 24 h skin conc [2, 9]: 2.6 ± 1.5 µmol/g
- Flux [2, 9]: 3.23 nmol/cm^2/h
- Lag time [2, 9]: 12.2 h

Reference: patent publication US9957246B2, “Prodrugs of tetrahydrocannabinol, compositions comprising prodrugs of tetrahydrocannabinol and methods of using the same” (Zynerba Pharmaceuticals, Inc., priority 2007, dated 2018)
